Experimental data from PMC12423841 (ACS Omega, 2025).

Experiments:
[1] = test system: VSV pseudotyped with the SARS-CoV-2 Wuhan-Hu-1 S; experiment: organism not typed; type: cell-based; conditions: for antiviral activity (reduction of viral entry) versus cellular toxicity: VSVΔG-SWh in VeroE6 cells, various concentrations; for EC50: Vero C1008, read-out: EC50 (concentration reducing infection by VSV pseudotyped with the SARS-CoV-2 Wuhan-Hu-1 S by 50%)
in vitro = conditions: African green monkey
[2] = test system: SARS-CoV-2 in VeroE6-TMPRSS2 cells; type: cell-based; conditions: 24 h, compounds 20 μM, remdesivir 30 μM
[3] = test system: SARS-CoV-2 in A549-ACE2 cells; type: cell-based; conditions: 24 h, compounds 20 μM, remdesivir 30 μM
[4] = test system: VSV pseudotyped with SARS-CoV-2 Omicron BA.1 Spike; type: cell-based; conditions: dose response
[5] = test system: VSV pseudotyped with SARS-CoV-1 Spike; type: cell-based
[6] = test system: VSV pseudotyped with SARS-CoV-2 Delta Spike; type: cell-based; conditions: dose response

Row | SMILES | antiviral activity (reduction of viral entry) versus cellular toxicity [1] | EC50 [1] [µM] | CC50 (in vitro) [µM] | virus production after SARS-CoV-2 infection [2] | virus production after SARS-CoV-2 infection [3] | inhibition of infection by VSV pseudotyped with SARS-CoV-2 Wuhan Spike ([1]; dose response) | inhibition of infection by VSV pseudotyped with SARS-CoV-2 Omicron BA.1 Spike [4] | inhibition of infection by VSV pseudotyped with SARS-CoV-1 Spike [5] | inhibition of infection by VSV pseudotyped with SARS-CoV-2 Delta Spike [6]
1 | C=C1CC[C@H](O)C/C1=C/C=C1\CCC[C@]2(C)[C@@H]([C@H](C)CCCC(C)(C)O)CC[C@@H]12 [calcifediol] | antiviral activity could not be separated from toxicity | 6.13 ± 3.52 | 16.8 ± 0.5 | – | – | – | – | – | –
2 | CCC(CC)COC(=O)[C@H](C)N[P@](=O)(OC[C@H]1O[C@@](C#N)(c2ccc3c(N)ncnn23)[C@H](O)[C@@H]1O)Oc1ccccc1 [remdesivir] | – | – | – | reduced viral replication significantly | reduced viral replication significantly | – | – | – | –
3 | CC(C)c1c(CN(C)C(C)Cc2ccccc2)n(C)n(-c2ccccc2)c1=O (stereo not shown) [famprofazone] | showed antiviral activity in the absence of toxicity | 7.64 ± 4.55 | 79 ± 2.75 | – | statistically significant reduction of virus production | – | – | – | –
4 | CCCCCCCCc1ccc(CCC(N)(CO)CO)cc1 [fingolimod] | showed antiviral activity in the absence of toxicity | 7.12 ± 2.25 | 20.4 ± 19.6 | significant reduction | statistically significant reduction of virus production | dose-dependent reduction | dose-dependent reduction | dose-dependent reduction | dose-dependent reduction
5 | C=C1CC[C@H](O)C/C1=C/C=C1\CCC[C@]2(C)[C@@H]([C@H](C)CCCC(C)C)CC[C@@H]12 [cholecalciferol] | showed antiviral activity in the absence of toxicity | 14.8 ± 4.11 | 83.7 ± 6.12 | – | – | – | – | – | –
6 | CC[N+](C)(CC)CCOC(=O)C(O)(c1ccccc1)C1CCCCC1 (stereo not shown) [oxyphenomium] | could not be observed | – | – | – | – | – | – | – | –
